The values below come from PubChem BioAssay (NCI).

Test systems include OVCAR-5 ovarian; U251 CNS; A498 renal; UACC-62 melanoma; HOP-62 NSCLC; CAKI-1 renal; UO-31 renal; HCC-2998 colon; NCI-H460 lung; SK-OV-3 ovarian.
What all share (assay): growth of human tumour cells (NCI), 48 h

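These data come from cells grown in 96-well plates and exposed to compound for 48 hours at five concentrations. GI50 is the concentration that inhibits growth by half. TGI: total growth inhibition.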 Where a SMILES comes first, the peptide text is derived from it. A value given as a limit tells only on which side of the number the result lay.

Regarding `O=S1(=O)CCCS(=O)(=O)C(c2ccccc2)=C1c1ccccc1`, the TGI in the assay on OVCAR-5 ovarian was greater than 100 µM; in the assay on U251 CNS, greater than 100 µM; in the assay on A498 renal, greater than 100 µM; in the assay with UACC-62 melanoma, greater than 100 µM; in the assay on HOP-62 NSCLC it was 96.8 µM; in the assay on CAKI-1 renal it was greater than 100 µM. Also, the TGI was greater than 100 µM in the assay with UO-31 renal, 32.4 µM in the assay with HCC-2998 colon, greater than 100 µM with NCI-H460 lung and greater than 100 µM with SK-OV-3 ovarian.

As for `CCC(C)C1NC(=O)C2CCCN2C(=O)CNC(=O)C(C)NC(=O)C(Cc2ccccc2)NC(=O)C(C(C)C)NC1=O` (centres undefined) (cyclo(GPIVFA); configuration not given here), the TGI in the assay with OVCAR-5 ovarian, in the assay on U251 CNS, with A498 renal, in the assay with UACC-62 melanoma, with HOP-62 NSCLC and in the assay with CAKI-1 renal was greater than 100 µM throughout. Moreover, the TGI with UO-31 renal, in the assay on HCC-2998 colon, with NCI-H460 lung and in the assay with SK-OV-3 ovarian was greater than 100 µM each time.

For the compound `COCCN1CCN(Cc2ccc(-c3n[nH]c4c3C(=O)c3c(NC(=O)NN5CCOCC5)cccc3-4)cc2)CC1`, the GI50 in the assay on OVCAR-5 ovarian is 0.0212 µM; in the assay with U251 CNS it was 0.0204 µM; in the assay with A498 renal, 0.0292 µM; with UACC-62 melanoma it was 0.0145 µM; with HOP-62 NSCLC it was 0.0324 µM; with CAKI-1 renal, 0.0277 µM. The GI50 in the assay with UO-31 renal is 0.0916 µM; in the assay with HCC-2998 colon, 0.0262 µM; in the assay with NCI-H460 lung, 0.0274 µM; in the assay with SK-OV-3 ovarian it was 0.0457 µM. Further, the TGI was greater than 4.7 µM with OVCAR-5 ovarian; 0.141 µM with A498 renal; 0.0462 µM in the assay with UACC-62 melanoma; 2.94 µM with HOP-62 NSCLC; greater than 10 µM with CAKI-1 renal; 9.36 µM in the assay with UO-31 renal. The TGI in the assay with HCC-2998 colon was 0.274 µM; in the assay with NCI-H460 lung, 0.623 µM; with SK-OV-3 ovarian it was greater than 9.41 µM.

With `NCCOc1ccccc1/C=C1\c2ccccc2-c2ccc([N+](=O)[O-])cc21`, the GI50 in the assay on OVCAR-5 ovarian is 1.61 µM; in the assay on U251 CNS it was 1.38 µM; in the assay on A498 renal it was 1.44 µM; with UACC-62 melanoma it was 1.54 µM; in the assay with HOP-62 NSCLC it was 1.53 µM; in the assay on CAKI-1 renal, 1.38 µM. For the same compound, the GI50 was 1.3 µM in the assay on UO-31 renal, 1.51 µM in the assay on HCC-2998 colon, 0.488 µM in the assay on NCI-H460 lung and 1.7 µM in the assay with SK-OV-3 ovarian. Further, the TGI in the assay with OVCAR-5 ovarian came out at 3.06 µM; in the assay on U251 CNS it was 2.74 µM; in the assay on A498 renal, 2.76 µM; with UACC-62 melanoma, 2.92 µM; with HOP-62 NSCLC it was 3.18 µM; in the assay on CAKI-1 renal it was 2.72 µM. Further, the TGI in the assay on UO-31 renal is 2.61 µM; in the assay with HCC-2998 colon it was 3.09 µM; in the assay on NCI-H460 lung it was 1.66 µM; in the assay with SK-OV-3 ovarian, 3.13 µM.

As to `Cc1[nH]nc2c1N=C(c1ccccc1F)c1cc(C(N)=O)ccc1N2`, the GI50 in the assay with OVCAR-5 ovarian was 9.61 µM; in the assay on U251 CNS, 0.71 µM; with A498 renal it was 1.08 µM; in the assay with UACC-62 melanoma, 4.11 µM; in the assay with HOP-62 NSCLC it was 3.79 µM; in the assay on CAKI-1 renal it was 3.83 µM. Also, the GI50 is 4.31 µM in the assay on UO-31 renal, 8.51 µM in the assay on HCC-2998 colon, 3.33 µM in the assay on NCI-H460 lung and 6.43 µM with SK-OV-3 ovarian. The TGI is greater than 22.3 µM with OVCAR-5 ovarian; 10.2 µM with U251 CNS; 6.02 µM in the assay with A498 renal; 9.17 µM in the assay with UACC-62 melanoma; 24.4 µM in the assay on HOP-62 NSCLC; greater than 19.7 µM in the assay on CAKI-1 renal. In addition, the TGI is greater than 21.1 µM in the assay on UO-31 renal, greater than 25 µM with HCC-2998 colon, greater than 25 µM in the assay on NCI-H460 lung and greater than 25 µM in the assay with SK-OV-3 ovarian.

With `COc1c(-c2ccc(O)c(O)c2)oc2c(O)c(O)cc(O)c2c1=O`, the TGI was greater than 100 µM in the assay on OVCAR-5 ovarian; greater than 100 µM with U251 CNS; greater than 100 µM in the assay with A498 renal; greater than 100 µM in the assay with UACC-62 melanoma; 67.4 µM with HOP-62 NSCLC; greater than 100 µM with CAKI-1 renal. Moreover, the TGI with UO-31 renal, with HCC-2998 colon, in the assay on NCI-H460 lung and in the assay on SK-OV-3 ovarian was greater than 100 µM in each case.

For `Cn1c2ccccc2c2c3[nH][nH]c(=O)c3c3c4ccccc4[nH]c3c21`, the GI50 is 4.21 µM in the assay with OVCAR-5 ovarian; 2.09 µM in the assay on U251 CNS; 1.61 µM in the assay on A498 renal; 2.07 µM with UACC-62 melanoma; 3.11 µM in the assay with HOP-62 NSCLC; 2.22 µM with CAKI-1 renal. Also, the GI50 was 2.68 µM in the assay on UO-31 renal, 2.74 µM in the assay with HCC-2998 colon, 1.57 µM with NCI-H460 lung and 3.46 µM in the assay on SK-OV-3 ovarian. Besides, the TGI with OVCAR-5 ovarian was greater than 100 µM; in the assay with U251 CNS, 21.1 µM; in the assay with A498 renal, 5.79 µM; in the assay with UACC-62 melanoma it was 5.81 µM; in the assay on HOP-62 NSCLC, 10.4 µM; in the assay on CAKI-1 renal, greater than 100 µM. Moreover, the TGI in the assay on UO-31 renal was found to be 24.3 µM; in the assay with HCC-2998 colon, 8.1 µM; with NCI-H460 lung it was 10.8 µM; in the assay with SK-OV-3 ovarian it was 64.8 µM.

Regarding `CN(C)CC(C(=O)Cc1ccccc1)c1ccccc1` (centres undefined), the GI50 in the assay on OVCAR-5 ovarian is 8.19 µM; in the assay with U251 CNS, 2.23 µM; in the assay with A498 renal, 12.4 µM; in the assay on UACC-62 melanoma, 6.16 µM; in the assay with HOP-62 NSCLC, 6.87 µM; in the assay with CAKI-1 renal it was 1.57 µM. Moreover, the GI50 is 1.69 µM in the assay with UO-31 renal, 15.9 µM in the assay with HCC-2998 colon, 4.24 µM in the assay on NCI-H460 lung and 18.4 µM in the assay with SK-OV-3 ovarian. The TGI in the assay with OVCAR-5 ovarian was 22.4 µM; with U251 CNS, 5.02 µM; with A498 renal, 25 µM; with UACC-62 melanoma, 20.1 µM; in the assay on HOP-62 NSCLC, 21 µM; in the assay on CAKI-1 renal, 3.01 µM. Besides, the TGI in the assay with UO-31 renal turned out to be 3.32 µM; with HCC-2998 colon it was 30.3 µM; in the assay with NCI-H460 lung it was 14.8 µM; in the assay on SK-OV-3 ovarian, 36.2 µM.

As to `COC(=O)C(CBr)CBr`, the TGI in the assay with OVCAR-5 ovarian came to 31.2 µM; in the assay on U251 CNS, 10.3 µM; in the assay with A498 renal, 31.8 µM; in the assay on UACC-62 melanoma it was 18.1 µM; with HOP-62 NSCLC, 40.7 µM; in the assay with CAKI-1 renal, 10 µM. The TGI with UO-31 renal was 10.2 µM; in the assay with HCC-2998 colon, 10.9 µM; in the assay with NCI-H460 lung it was 33.1 µM; in the assay with SK-OV-3 ovarian, 33.8 µM.
